Results published in PubChem BioAssay AID248 (DTP/NCI, 2004).
Values joined by “and” are separate entries in the source; they are usually repeats but may differ in a detail not shown here. Equal values may be shown once. Toxic doses and inconclusive results are not listed. No stated cut-off is given here; in the data, active means T/C of 150% or more; inactive means T/C below 125%.

Test system: L1210 leukemia ip in BDF1 mice, survival T/C
Test: NCI In Vivo Anticancer Drug Screen. Data for tumor model L1210 Leukemia (intraperitoneal) in B6D2F1 (BDF1) mice
Conditions: endpoint: mean survival time, higher = longer survival
Outline: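 Value reflects the ratio of survival in compound-treated mice to survival in vehicle-treated controls, with both groups carrying the same transplanted tumor.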

[1] = dose: 100.0 mg/kg/injection, schedule: Q04DX003 (ip), vehicle: saline with Tween-80
[2] = dose: 200.0 mg/kg/injection, schedule: Q04DX003 (ip), vehicle: saline with Tween-80
[3] = dose: 400.0 mg/kg/injection, schedule: Q04DX003 (ip), vehicle: saline with Tween-80
[4] = dose: 200.0 mg/kg/injection, schedule: Q01DX001 (ip), vehicle: saline
[5] = dose: 400.0 mg/kg/injection, schedule: Q01DX001 (ip), vehicle: saline
[6] = dose: 100.0 mg/kg/injection, schedule: Q01DX009 (ip), vehicle: saline with Tween-80
[7] = dose: 100.0 mg/kg/injection, schedule: Q04DX002 (ip), vehicle: Klucel (hydroxypropylcellulose) (HPC)
[8] = dose: 100.0 mg/kg/injection, schedule: Q01DX009 (ip), vehicle: Klucel (hydroxypropylcellulose) (HPC)
[9] = dose: 100.0 mg/kg/injection, schedule: Q04DX003 (ip), vehicle: Klucel (hydroxypropylcellulose) (HPC)
[10] = dose: 200.0 mg/kg/injection, schedule: Q01DX009 (ip), vehicle: Klucel (hydroxypropylcellulose) (HPC)
[11] = dose: 200.0 mg/kg/injection, schedule: Q04DX003 (ip), vehicle: Klucel (hydroxypropylcellulose) (HPC)
[12] = dose: 400.0 mg/kg/injection, schedule: Q01DX009 (ip), vehicle: Klucel (hydroxypropylcellulose) (HPC)
[13] = dose: 400.0 mg/kg/injection, schedule: Q04DX003 (ip), vehicle: Klucel (hydroxypropylcellulose) (HPC)
[14] = dose: 25.0 mg/kg/injection, schedule: Q04DX002 (ip), vehicle: Klucel (hydroxypropylcellulose) (HPC)
[15] = dose: 50.0 mg/kg/injection, schedule: Q04DX002 (ip), vehicle: Klucel (hydroxypropylcellulose) (HPC)
[16] = dose: 100.0 mg/kg/injection, schedule: Q01DX009 (ip), vehicle: saline
[17] = dose: 100.0 mg/kg/injection, schedule: Q04DX003 (ip), vehicle: saline
[18] = dose: 200.0 mg/kg/injection, schedule: Q04DX003 (ip), vehicle: saline
[19] = dose: 100.0 mg/kg/injection, schedule: Q01DX001 (ip), vehicle: Klucel (hydroxypropylcellulose) (HPC)
[20] = dose: 200.0 mg/kg/injection, schedule: Q01DX001 (ip), vehicle: Klucel (hydroxypropylcellulose) (HPC)
[21] = dose: 400.0 mg/kg/injection, schedule: Q01DX001 (ip), vehicle: Klucel (hydroxypropylcellulose) (HPC)

Measured: T/C

COC1CCC(/C=C(\C#N)C2CCC([N+](=O)[O-])CC2)CC1 (stereo not given)
inactive: dose: 100.0 mg/kg/injection, schedule: Q04DX002 (ip), vehicle: saline with Tween-80 106 % of control | dose: 200.0 mg/kg/injection, schedule: Q04DX002 (ip), vehicle: saline with Tween-80 102 % of control | dose: 400.0 mg/kg/injection, schedule: Q04DX002 (ip), vehicle: saline with Tween-80 98 % of control

CCOc1ccccc1/C=N/N=C(N)N
inactive: dose: 63.0 mg/kg/injection, schedule: Q01DX Z (ip), vehicle: carboxymethylcellulose (CMC) 95 % of control | dose: 125.0 mg/kg/injection, schedule: Q01DX Z (ip), vehicle: carboxymethylcellulose (CMC) 95 % of control

O=C(O)C1=C/C(=C\C=[N+]2c3cc(O)c(OC4OC(CO)C(O)C(O)C4O)cc3CC2C(=O)[O-])CC(C(=O)O)N1 (stereo not given)
inactive: [1] 97 % of control | [2] 94 % of control | [3] 95 % of control

COc1cc(C(O)C(=O)O)c([N+](=O)[O-])cc1OC (stereo not given)
inactive: dose: 100.0 mg/kg/injection, schedule: Q01DX001 (ip), vehicle: saline 96 % of control | [4] 91 % of control | [5] 91 % of control

CC(NC(=O)OCc1ccccc1)C(=O)Nc1ccc(C(=O)O)c(O)c1 (stereo not given)
inactive: [6] 90 % of control | dose: 200.0 mg/kg/injection, schedule: Q01DX009 (ip), vehicle: saline with Tween-80 88 % of control | dose: 400.0 mg/kg/injection, schedule: Q01DX009 (ip), vehicle: saline with Tween-80 98 % of control

Cc1c(C(=O)O)c(-c2ccc([N+](=O)[O-])cc2)c(C=O)n1-c1ccccc1
inactive: [7] 91 % of control | dose: 200.0 mg/kg/injection, schedule: Q04DX002 (ip), vehicle: Klucel (hydroxypropylcellulose) (HPC) 97 % of control | dose: 400.0 mg/kg/injection, schedule: Q04DX002 (ip), vehicle: Klucel (hydroxypropylcellulose) (HPC) 102 % of control

CC(CO)(CI)[n+]1ccccc1 (stereo not given)
inactive: dose: 25.0 mg/kg/injection, schedule: Q01DX009 (ip), vehicle: saline with Tween-80 100 % of control | dose: 50.0 mg/kg/injection, schedule: Q01DX009 (ip), vehicle: saline with Tween-80 94 % of control | [6] 103 % of control | [1] 106 % of control

COc1ccc([N+](=O)[O-])cc1NS(=O)(=O)c1ccc(C)cc1
inactive: dose: 50.0 mg/kg/injection, schedule: Q04DX003 (ip), vehicle: saline with Tween-80 95 % of control | [1] 94 % of control and 90 % of control | [2] 86 % of control and 92 % of control | [3] 92 % of control

O=[N+]([O-])c1ccc(C(O)CC(O)(C(F)(F)F)C(F)(F)F)cc1 (stereo not given)
inactive: [8] 93 % of control | [9] 94 % of control | [10] 94 % of control | [11] 91 % of control | [12] 97 % of control | [13] 95 % of control

Cc1ccc(C(=O)C=Nc2ccccc2[N+](=O)[O-])cc1
inactive: dose: 12.5 mg/kg/injection, schedule: Q04DX002 (ip), vehicle: Klucel (hydroxypropylcellulose) (HPC) 105 % of control | [14] 108 % of control | [15] 123 % of control

Cc1cccc(C)c1CNC(=O)NCCCl
inactive: [9] 98 % of control | [11] 95 % of control | [13] 104 % of control

O=C(O)c1ccc(/C=N/NC(=S)Nc2cccc3cccnc23)cc1
inactive: [4] 94 % of control | [5] 97 % of control

Cc1cc(NC(=O)NCc2ccc(N)cc2)ccc1S(=O)(=O)F
inactive: [16] 95 % of control | [17] 100 % of control | dose: 200.0 mg/kg/injection, schedule: Q01DX009 (ip), vehicle: saline 114 % of control | [18] 96 % of control | dose: 400.0 mg/kg/injection, schedule: Q01DX009 (ip), vehicle: saline 93 % of control | dose: 400.0 mg/kg/injection, schedule: Q04DX003 (ip), vehicle: saline 100 % of control

Cc1nccc2cc3c(cc12)c1ccccc1n3C
inactive: dose: 37.5 mg/kg/injection, schedule: Q04DX003 (ip), vehicle: Klucel (hydroxypropylcellulose) (HPC) 105 % of control | dose: 75.0 mg/kg/injection, schedule: Q04DX003 (ip), vehicle: Klucel (hydroxypropylcellulose) (HPC) 111 % of control | dose: 150.0 mg/kg/injection, schedule: Q04DX003 (ip), vehicle: Klucel (hydroxypropylcellulose) (HPC) 105 % of control | dose: 300.0 mg/kg/injection, schedule: Q04DX003 (ip), vehicle: Klucel (hydroxypropylcellulose) (HPC) 95 % of control

O=C(COC(=O)c1ccccc1C(=O)c1ccccc1O)c1ccc(-c2ccccc2)cc1
inactive: [4] 91 % of control | [5] 91 % of control

CN(C)c1ccc(C=Nc2ccc(S(N)(=O)=O)cc2)cc1
inactive: [8] 100 % of control | [10] 93 % of control | [12] 98 % of control

COc1cccc(C(=NC(=O)c2ccccc2)c2ccccc2)c1
inactive: [8] 100 % of control | [10] 97 % of control | [12] 91 % of control

COc1cc2c(cc1OC)C(OC)N(C)c1c-2ccc2cc(OC)c(OC)cc12 (stereo not given)
inactive: dose: 100.0 mg/kg/injection, schedule: Q01DX009 (ip), vehicle: water 110 % of control | dose: 100.0 mg/kg/injection, schedule: Q04DX003 (ip), vehicle: water 103 % of control | dose: 200.0 mg/kg/injection, schedule: Q04DX003 (ip), vehicle: water 115 % of control | dose: 400.0 mg/kg/injection, schedule: Q01DX009 (ip), vehicle: water 104 % of control and 122 % of control | dose: 400.0 mg/kg/injection, schedule: Q04DX003 (ip), vehicle: water 113 % of control

CC(C)C1(C(=O)N2CCCCC2=O)SCCCS1
inactive: [1] 94 % of control | [2] 90 % of control | [3] 92 % of control

Cc1c(Cl)cccc1NC(=O)Oc1ccc(F)cc1Cl
inactive: [8] 94 % of control | [10] 95 % of control

CSC(N)=Nc1cccc(C)c1C
inactive: dose: 50.0 mg/kg/injection, schedule: Q01DX009 (ip), vehicle: saline 100 % of control | [16] 101 % of control | [17] 97 % of control | [18] 97 % of control

O=C(NC(=O)C(Cl)Cl)OC1c2cc(Cl)ccc2-c2c(Cl)cc(Cl)cc21 (stereo not given)
inactive: [19] 90 % of control | [8] 95 % of control | [9] 91 % of control | [20] 98 % of control | [10] 89 % of control | [11] 91 % of control | [21] 88 % of control | [13] 88 % of control

O=P1(c2ccccc2)CCc2[nH]c3ccc(F)cc3c2C1 (stereo not given)
inactive: [19] 97 % of control | [20] 100 % of control | [21] 98 % of control

ClCc1nc2ccc(Cl)cc2[nH]1
inactive: dose: 100.0 mg/kg/injection, schedule: Q01DX001 (ip), vehicle: other 104 % of control | dose: 200.0 mg/kg/injection, schedule: Q01DX001 (ip), vehicle: other 106 % of control

O/N=C/c1cccn1-c1cccc2c(-n3cccc3/C=N/O)cccc12
inactive: [14] 101 % of control | [15] 93 % of control | [7] 97 % of control

Cc1ccc(S(=O)(=O)OCC2C3CCC4C3C(C)(C)CCCC24C)cc1 (stereo not given)
inactive: [19] 107 % of control | [20] 95 % of control | [21] 90 % of control
